# Data: ChEMBL document CHEMBL5576083, “Structure-Based Design and Synthesis of Covalent Inhibitors for Deubiquitinase and Acetyltransferase ChlaDUB1 of Chlamydia trachomatis” (J Med Chem, 2024)
# Activity calls are given as the source filed them. The rule behind the calls is not given here.
# Columns and labels:
# [1] = test system: Chlamydia trachomatis; experiment: Antimicrobial activity against Chlamydia trachomatis serovar L2 infected in human HeLa cells assessed as reduction in microbial progeny at 1.56 ug/ml measured after 48 hrs of post-infection by immunofluorescence analysis; type: functional; set-up: scale not given: the % may be the effect or the level left; conditions: dose 1.56 µg/ml
# [2] = test system: Chlamydia trachomatis; experiment: Antimicrobial activity against Chlamydia trachomatis serovar L2 infected in human HeLa cells assessed as reduction in microbial progeny at 6.25 ug/ml measured after 24 hrs of post-infection by immunofluorescence analysis; type: functional; set-up: scale not given: the % may be the effect or the level left; conditions: dose 6.25 µg/ml
# [3] = test system: Chlamydia trachomatis; experiment: Antimicrobial activity against Chlamydia trachomatis serovar L2 infected in human HeLa cells assessed as reduction in inclusion area at 6.25 ug/ml measured after 24 hrs of post-infection by microscopic analysis (reference value: 79.96 microm2); type: functional; conditions: dose 6.25 µg/ml
# [4] = test system: Chlamydia trachomatis; experiment: Anti-chlamydial activity against Chlamydia trachomatis serovar L2 infected in human HEp-2 cells assessed as inhibition of chlamydial inclusion incubated for 24 hrs by Alexa488/DAPI staining based immunofluorescence assay; type: functional, organism-based; conditions: serovar L2, HEp-2, 24 h
# [5] = test system: Chlamydia trachomatis; experiment: Antimicrobial activity against Chlamydia trachomatis serovar L2 infected in human HeLa cells assessed as reduction in microbial progeny at 1.56 ug/ml measured after 24 hrs of post-infection by immunofluorescence analysis; type: functional; set-up: scale not given: the % may be the effect or the level left; conditions: dose 1.56 µg/ml
# [6] = test system: Chlamydia trachomatis; experiment: Antimicrobial activity against Chlamydia trachomatis serovar L2 infected in human HeLa cells assessed as reduction in inclusion area at 12.5 ug/ml measured after 24 hrs of post-infection by microscopic analysis (reference value: 79.96 microm2); type: functional; conditions: dose 12.5 µg/ml
# [7] = test system: Chlamydia trachomatis; experiment: Antimicrobial activity against Chlamydia trachomatis serovar L2 infected in human HeLa cells assessed as reduction in microbial progeny at 3.13 ug/ml measured after 48 hrs of post-infection by immunofluorescence analysis; type: functional; set-up: scale not given: the % may be the effect or the level left; conditions: dose 3.13 µg/ml
# [8] = Covalent inhibition of C-terminal 6His-tagged Chlamydia trachomatis DUB1 (130 to 401 residues) expressed in Escherichia coli Rosetta 2 (DE3) cells using Ub-Rh110Gly as fluorogenic substrate preincubated for 1 hr followed by substrate addition by plate reader analysis
# [9] = test system: Chlamydia trachomatis; experiment: Antimicrobial activity against Chlamydia trachomatis serovar L2 infected in human HeLa cells assessed as reduction in inclusion circumference at 6.25 ug/ml measured after 24 hrs of post-infection by microscopic analysis (reference value: 33.2 micrometer); type: functional; conditions: dose 6.25 µg/ml
# [10] = test system: Chlamydia trachomatis; experiment: Antimicrobial activity against Chlamydia trachomatis serovar L2 infected in human HeLa cells assessed as reduction in microbial progeny at 12.5 ug/ml measured after 24 hrs of post-infection by immunofluorescence analysis; type: functional; set-up: scale not given: the % may be the effect or the level left; conditions: dose 12.5 µg/ml
# [11] = test system: Chlamydia trachomatis; experiment: Antimicrobial activity against Chlamydia trachomatis serovar L2 infected in human HeLa cells assessed as reduction in inclusion circumference at 12.5 ug/ml measured after 24 hrs of post-infection by microscopic analysis (reference value: 33.2 micrometer); type: functional; conditions: dose 12.5 µg/ml
# [12] = test system: Chlamydia trachomatis; experiment: Antimicrobial activity against Chlamydia trachomatis serovar L2 infected in human HeLa cells assessed as reduction in microbial progeny at 3.13 ug/ml measured after 24 hrs of post-infection by immunofluorescence analysis; type: functional; set-up: scale not given: the % may be the effect or the level left; conditions: dose 3.13 µg/ml
# [13] = target: Ubiquitin carboxyl-terminal hydrolase 7 (Homo sapiens) (UniProt Q93009); experiment: Binding affinity to USP7 (208 to 1102 residues) (unknown origin) expressed in Sf9 insect cells assessed as ratio of Kinact/Ki incubated for 3 hrs by fluorescence based analysis
# Sequence of Ubiquitin carboxyl-terminal hydrolase 7 (Homo sapiens) (Q93009 whole entry, looked up, the tested form may be a part): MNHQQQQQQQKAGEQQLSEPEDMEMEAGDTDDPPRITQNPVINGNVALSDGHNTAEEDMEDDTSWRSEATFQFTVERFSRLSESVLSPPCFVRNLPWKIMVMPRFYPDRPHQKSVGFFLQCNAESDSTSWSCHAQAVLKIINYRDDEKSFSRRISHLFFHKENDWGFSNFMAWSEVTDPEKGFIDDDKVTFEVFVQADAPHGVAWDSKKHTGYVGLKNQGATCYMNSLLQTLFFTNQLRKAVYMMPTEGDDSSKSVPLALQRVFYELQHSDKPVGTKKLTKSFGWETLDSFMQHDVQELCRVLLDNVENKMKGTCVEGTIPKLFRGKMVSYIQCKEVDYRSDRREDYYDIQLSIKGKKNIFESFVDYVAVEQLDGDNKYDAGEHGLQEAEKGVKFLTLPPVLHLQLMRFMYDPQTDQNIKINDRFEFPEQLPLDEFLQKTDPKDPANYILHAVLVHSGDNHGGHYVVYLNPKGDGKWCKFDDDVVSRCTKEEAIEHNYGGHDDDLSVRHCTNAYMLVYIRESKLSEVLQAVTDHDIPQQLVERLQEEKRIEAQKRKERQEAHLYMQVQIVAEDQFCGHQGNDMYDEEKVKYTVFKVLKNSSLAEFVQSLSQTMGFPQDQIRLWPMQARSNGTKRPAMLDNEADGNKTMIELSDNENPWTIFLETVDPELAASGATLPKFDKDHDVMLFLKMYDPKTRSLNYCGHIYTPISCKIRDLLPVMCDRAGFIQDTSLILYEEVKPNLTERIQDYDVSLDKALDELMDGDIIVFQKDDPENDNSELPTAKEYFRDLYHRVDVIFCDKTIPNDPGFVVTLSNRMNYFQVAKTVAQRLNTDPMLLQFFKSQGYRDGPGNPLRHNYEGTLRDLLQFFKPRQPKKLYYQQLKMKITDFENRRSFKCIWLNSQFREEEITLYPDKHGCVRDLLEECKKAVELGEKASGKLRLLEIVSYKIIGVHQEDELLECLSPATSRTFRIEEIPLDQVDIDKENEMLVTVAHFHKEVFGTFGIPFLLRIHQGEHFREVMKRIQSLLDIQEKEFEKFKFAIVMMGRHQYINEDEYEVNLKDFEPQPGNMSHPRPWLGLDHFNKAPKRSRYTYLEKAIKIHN
# [14] = test system: Chlamydia trachomatis; experiment: Antimicrobial activity against Chlamydia trachomatis serovar L2 infected in human HeLa cells assessed as fold increase in inclusion forming unit at 1 ug/ml measured after 48 hrs of post-infection by immunofluorescence based microscopic analysis; type: functional; conditions: dose 1 µg/ml
# [15] = test system: Chlamydia trachomatis; experiment: Antimicrobial activity against Chlamydia trachomatis serovar L2 infected in human HeLa cells assessed as reduction in inclusion forming unit at 1 ug/ml measured at 24 to 48 hrs of post-infection by immunofluorescence based microscopic analysis; type: functional, organism-based; conditions: dose 1.0 µg/ml, time 24-48 hrs
# [16] = target: Ubiquitin carboxyl-terminal hydrolase isozyme L1 (Homo sapiens) (UniProt P09936); experiment: Binding affinity to human UCHL1 (1 to 223 residues) expressed in Escherichia coli Rosetta 2 (DE3) cells using Ub-Rh110Gly as fluorogenic substrate assessed as ratio of Kinact/Ki by fluorescence based analysis
# [17] = target: T1, Ubiquitin carboxyl-terminal hydrolase isozyme L1 (Homo sapiens, UniProt P09936); experiment: Inhibition of 6His-tagged human UCHL1 using Ub-Rh110Gly as fluorogenic substrate preincubated for 1 hr followed by substrate addition by plate reader analysis
# T1 sequence (P09936 whole entry): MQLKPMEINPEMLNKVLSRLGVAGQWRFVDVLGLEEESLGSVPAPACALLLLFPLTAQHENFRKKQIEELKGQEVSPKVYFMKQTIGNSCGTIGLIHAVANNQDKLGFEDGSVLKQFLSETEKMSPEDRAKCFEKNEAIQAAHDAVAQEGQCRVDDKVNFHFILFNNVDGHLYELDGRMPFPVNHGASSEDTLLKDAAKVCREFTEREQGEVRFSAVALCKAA
# [18] = Binding affinity to C-terminal 6His-tagged Chlamydia trachomatis DUB1 (130 to 401 residues) expressed in Escherichia coli Rosetta 2 (DE3) cells using Ub-Rh110Gly as fluorogenic substrate assessed as inhibition constant preincubated for 60 mins followed by substrate addition measured after 360 mins by plate reader analysis
# [19] = test system: Chlamydia trachomatis; experiment: Binding affinity to C-terminal 6His-tagged Chlamydia trachomatis DUB1 (130 to 401 residues) expressed in Escherichia coli Rosetta 2 (DE3) cells using Ub-Rh110Gly as fluorogenic substrate assessed as Kinact preincubated for 60 mins followed by substrate addition measured after 360 mins by plate reader analysis; conditions: time 420.0 min
# [20] = test system: Chlamydia trachomatis; experiment: Binding affinity to C-terminal 6His-tagged Chlamydia trachomatis DUB1 (130 to 401 residues) expressed in Escherichia coli Rosetta 2 (DE3) cells using Ub-Rh110Gly as fluorogenic substrate assessed as ratio of Kinact/Ki preincubated for 60 mins followed by substrate addition measured after 360 mins by plate reader analysis; conditions: time 420.0 min
SMILES,IC50 [4],IC50 [8],pIC50 [8],other results
CC(C)(C)N(Cc1ccc(C(=O)Cc2ccccc2)cc1)C(=O)c1cnc(C#N)nc1,9.88 µg/mL,41 µM,4.13,Activity [1]: 55.5%; Activity [2]: 38.5%; Activity [3]: 44.93 um2; Activity [5]: 16.5%; Activity [6]: 23.3 um2; Activity [7]: 51.5%; Activity [9]: 24.83 um; Activity [10]: 81%; Activity [11]: 18.05 um; Activity [12]: 31.5%
N#Cc1ncc(C(=O)NCc2ccccc2)cn1,,154 µM,3.82,
C=CS(=O)(=O)Nc1ccccc1-c1ccc(C(=O)N2CCC(O)(Cn3cnc4c(cnn4C)c3=O)CC2)cc1,,,,Ratio [13]: 66 M⁻¹ s⁻¹
C[C@H]1c2cccc(O)c2C(=O)C2=C(O)[C@]3(O)C(=O)C(C(N)=O)=C(O)[C@@H](N(C)C)[C@@H]3[C@@H](O)[C@@H]21 [DOXYCYCLINE ANHYDROUS],0.018 µg/mL,,,fold change (FC) [14]: 5.3; Activity [15]: Active
CC(=O)c1ccc(CNC(=O)c2cnc(C#N)nc2)cc1,47.4 µg/mL,74 µM,4.13,
N#Cc1ncc(C(=O)NCc2ccc(C(=O)NCC3CC3)cc2)cn1,47.7 µg/mL,37 µM,4.43,
N#Cc1ncc(C(=O)NCc2ccc(C(=O)N3CCc4ccccc4C3)cc2)cn1,,16 µM,4.79,
N#Cc1ncc(C(=O)NCc2ccc(C(=O)NCc3nccs3)cc2)cn1,,31 µM,4.51,
Cn1c(-c2ccc(CNC(=O)c3cnc(C#N)nc3)cc2)nc2ccccc21,,131 µM,3.88,
C#CCCCNC(=O)c1ccc(-n2cnc(NC(=O)[C@H]3CCN(C#N)C3)c2)cc1,,,,Ratio [16]: 681 M⁻¹ s⁻¹
Cc1nn(C)c2cc(-c3ccc(-n4cnc(NC(=O)[C@H]5CCN(C#N)C5)c4)cc3)ccc12,,,,IC50 [17]: < 1 µM
CCOc1ccccc1CNC(=O)c1ccc(CNC(=O)c2cnc(C#N)nc2)cc1,15.8 µg/mL,13 µM,4.9,
N#Cc1ncc(C(=O)NCc2ccc(C(=O)NCc3ccccc3)cc2)cn1,19.4 µg/mL,27 µM,4.57,Ki [18]: 226 µM
Cc1cccc(CNC(=O)c2ccc(CNC(=O)c3cnc(C#N)nc3)cc2)c1,17.3 µg/mL,21 µM,4.68,
N#Cc1ncc(C(=O)NCc2ccc(C(=O)NCCc3ccccc3)cc2)cn1,,64 µM,4.2,
N#Cc1ncc(C(=O)NCc2ccc(C(=O)NCCN3CCOCC3)cc2)cn1,,51 µM,4.29,
COc1ccccc1CNC(=O)c1ccc(CNC(=O)c2cnc(C#N)nc2)cc1,16.9 µg/mL,31 µM,4.5,Ki [18]: 276 µM
Cc1ccc(CNC(=O)c2ccc(CNC(=O)c3cnc(C#N)nc3)cc2)cc1,,241 µM,3.62,
N#Cc1ncc(C(=O)NCc2ccc(C(=O)CCN3CCOCC3)cc2)cn1,,14 µM,4.86,Kinact [19]: 0.363 min⁻¹; Ratio [20]: 13.7 M⁻¹ s⁻¹; Ki [18]: 441 µM
Cc1ccccc1CNC(=O)c1ccc(CNC(=O)c2cnc(C#N)nc2)cc1,16.9 µg/mL,18 µM,4.75,
N#Cc1ncc(C(=O)NCc2ccc(C(=O)NCCC3CC3)cc2)cn1,40.7 µg/mL,25 µM,4.6,
CCCN(CCC)C(=O)c1ccc(CNC(=O)c2cnc(C#N)nc2)cc1,,74 µM,4.13,
CC(C)CN(CC(C)C)C(=O)c1ccc(CNC(=O)c2cnc(C#N)nc2)cc1,28.4 µg/mL,35 µM,4.46,
COc1cccc(CNC(=O)c2ccc(CNC(=O)c3cnc(C#N)nc3)cc2)c1,> 50 µg/mL,81 µM,4.09,
COc1ccc(CNC(=O)c2ccc(CNC(=O)c3cnc(C#N)nc3)cc2)cc1,,521 µM,3.28,
N#Cc1ncc(C(=O)NCc2ccc(C(=O)NCC3CCCCC3)cc2)cn1,,23 µM,4.64,
N#Cc1ncc(C(=O)NCc2ccc(C(=O)NCC3CCC3)cc2)cn1,38.9 µg/mL,21 µM,4.67,
N#Cc1ncc(C(=O)NCc2ccc(C(=O)Cc3ccccc3)cc2)cn1,,24 µM,4.63,
